pIC50: −log10 of the molar value.
Experiments:
MOLM-13 cells = experiment: MOLM-13 cellular assay (CellTiter-Glo cell viability); format: cell-based; conditions: 72 hours exposure, cell viability by CellTiter-Glo
Protocol: In Vitro Assay: MOLM-13 Cellular Assay
MOLM-13 cells were obtained from DSMZ and were maintained in RPMI 1640+Glutamax+25 mM HEPES (Invitrogen, catalog number 72400) supplemented with 10% heat inactivated fetal bovine serum (FBS; Invitrogen, catalog number 16140). The day prior to assay set-up, cells were pelleted, resuspended in fresh media, counted, and cells were plated at 0.4×10^6 cell/mL in a T150 flask. On the day of the assay, cells were pelleted, resuspend in fresh media, counted and seeded at 5,000 cells/well in white opaque 96-well tissue culture treated microplates (Perkin Elmer, catalog number 6005680). Cells were exposed to different concentrations of test compounds at 37° C., 5% CO2 for 72 hours immediately after seeding. Cell viability was acquired on a Perkin Elmer Envision 2104 multilabel reader using the CellTiter-Glo assay (Promega) according to the manufacturer's instructions.

human DHODH = molecular target: T1, human DHODH (Homo sapiens, UniProt Q02127); experiment: DHODH enzymatic assay (DCIP absorbance, end-point); format: biochemical; conditions: purified human DHODH, DCIP as final electron acceptor, end-point mode; read-out: hDHODH IC50
T1 construct: purchased Proteros PR-0044
T1 sequence (Q02127 whole entry): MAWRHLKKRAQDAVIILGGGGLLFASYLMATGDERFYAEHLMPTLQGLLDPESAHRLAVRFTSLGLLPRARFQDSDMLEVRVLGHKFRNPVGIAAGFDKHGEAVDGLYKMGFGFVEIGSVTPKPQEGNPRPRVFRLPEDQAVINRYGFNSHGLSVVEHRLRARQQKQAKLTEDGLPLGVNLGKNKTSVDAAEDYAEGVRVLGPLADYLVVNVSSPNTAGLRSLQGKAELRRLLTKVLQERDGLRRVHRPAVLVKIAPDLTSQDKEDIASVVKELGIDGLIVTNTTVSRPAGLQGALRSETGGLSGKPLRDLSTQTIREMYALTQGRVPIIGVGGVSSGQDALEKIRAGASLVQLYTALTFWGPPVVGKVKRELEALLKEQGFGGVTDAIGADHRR
Protocol: In vitro Assay: DHODH enzymatic assay
To detect DHODH enzyme activities, dichloroindophenol (DCIP) is added as the final electron acceptor in the assay. DCIP can accept electrons from the reduced coenzyme Q generated in the assay, or from dihydroorotate (DHO) via FMN by binding presumably to the ubiquinone pocket. […] The assay buffer contained […], pH 7.5, 150 mM NaCl, 0.5 mM EDTA, and 0.1% Triton X-100 in MilliQ water. Substrate consisting of 20 mM DHO, 5 mM CoQ6, and 1 mM DCIP in assay buffer, initiates the reaction. […] Absorbance measurements were obtained using the BMG Phera Star plate-reading spectrophotometer. Purified human DHODH was purchased from Proteros (cat. No. PR-0044). Chemicals were purchased from Sigma-Aldrich, Teknova, and Avanti Polar Lipids. Liquid handling was performed using Labcyte Echo and Formulatrix Tempest.

pIC50 (MOLM-13 cells; Homo sapiens, MOLM-13, 72 h)	pIC50 (MOLM-13 cells)	pIC50 (human DHODH)	Compound
7.79	–	–	CCn1c(CO)nn(-c2ccc3c(c2)C(C(C)C(F)(F)F)CN(c2c(F)cccc2Cl)C3=O)c1=O (centres unmarked) [Example 75, 2-(2-Chloro-6-fluorophenyl)-6-(4-ethyl-3-(hydroxymethyl)-5-oxo-4,5-dihydro-1H-1,2,4-triazol-1-yl)-4-(1,1,1-trifluoropropan-2-yl)-3,4-dihydroisoquinolin-1(2H)-one]
–	7.68	–	C=C(C)[C@H]1CN(c2c(C)cnc(OC)c2Cl)C(=O)c2cc(F)c(-n3nc(CO)n(CC)c3=O)cc21 (single isomer, unassigned; atropisomer 2) [Example 65, Atropisomer 2, (R*)-2-(3-Chloro-2-methoxy-5-methylpyridin-4-yl)-6-(4-ethyl-3-(hydroxymethyl)-5-oxo-4,5-dihydro-1H-1,2,4-triazol-1-yl)-7-fluoro-4-(prop-1-en-2-yl)-3,4-dihydroisoquinolin-1(2H)-one]
–	5.73	< 7.00	C=C(C)[C@H]1CN(c2c(C)cc(C)nc2Cl)C(=O)c2cc(F)c(-n3nc(CO)n(CC)c3=O)cc21 (single isomer, unassigned; atropisomer 1) [Example 59, Atropisomer 1, (R *)-2-(2-Chloro-4,6-dimethylpyridin-3-yl)-6-(4-ethyl-3-(hydroxymethyl)-5-oxo-4,5-dihydro-1H-1,2,4-triazol-1-yl)-7-fluoro-4-(prop-1-en-2-yl)-3,4-dihydroisoquinolin-1(2H)-one]
–	8.47	–	C=C(C)[C@H]1CN(c2c(C)ccnc2OC)C(=O)c2cc(F)c(-n3nc(CO)n(CC)c3=O)cc21 (single isomer, unassigned; atropisomer 2) [Example 53, Atropisomer 2, (R*)-6-(4-Ethyl-3-(hydroxymethyl)-5-oxo-4,5-dihydro-1H-1,2,4-triazol-1-yl)-7-fluoro-2-(2-methoxy-4-methylpyridin-3-yl)-4-(prop-1-en-2-yl)-3,4-dihydroisoquinolin-1(2H)-one]
8.92	–	8.85	CCn1c(CO)nn(-c2nc3c(cc2F)C(=O)N(c2c(F)cccc2Cl)CN3C(C)C)c1=O [Example 5, 3-(2-Chloro-6-fluorophenyl)-7-(4-ethyl-3-(hydroxymethyl)-5-oxo-4,5-dihydro-1H-1,2,4-triazol-1-yl)-6-fluoro-1-isopropyl-2,3-dihydropyrido[2,3-d]pyrimidin-4(1H)-one]
8.77	–	> 9.30	CCn1c(CO)nn(-c2nc3c(cc2F)C(=O)N(c2c(F)cccc2Cl)CN3[C@@H](C)C(F)(F)F)c1=O [Example 8, (S)-3-(2-Chloro-6-fluorophenyl)-7-(4-ethyl-3-(hydroxymethyl)-5-oxo-4,5-dihydro-1H-1,2,4-triazol-1-yl)-6-fluoro-1-(1,1,1-trifluoropropan-2-yl)-2,3-dihydropyrido[2,3-d]pyrimidin-4(1H)-one]
–	6.98	–	C=C(C)[C@H]1CN(c2c(C)ccnc2OC)C(=O)c2cc(F)c(-n3nc(CO)n(CC)c3=O)cc21 (single isomer, unassigned; atropisomer 1) [Example 52, Atropisomer 1, (R *)-6-(4-Ethyl-3-(hydroxymethyl)-5-oxo-4,5-dihydro-1H-1,2,4-triazol-1-yl)-7-fluoro-2-(2-methoxy-4-methylpyridin-3-yl)-4-(prop-1-en-2-yl)-3,4-dihydroisoquinol in-1 (2H)-one]
8.36	–	6.96	CCn1c(CO)nn(-c2cc3c(cc2F)c(=O)n(-c2c(F)cccc2Cl)c(=O)n3C(C)C)c1=O [Example 4, 3-(2-Chloro-6-fluorophenyl)-7-(4-ethyl-3-(hydroxymethyl)-5-oxo-4,5-dihydro-1H-1,2,4-triazol-1-yl)-6-fluoro-1-isopropylquinazoline-2,4(1H,3H)-dione]
8.26	–	8.40	CCCN1CN(c2c(F)cccc2Cl)C(=O)c2cc(F)c(-n3nc(CO)n(CC)c3=O)cc21 [Example 22, 3-(2-Chloro-6-fluorophenyl)-7-(4-ethyl-3-(hydroxymethyl)-5-oxo-4,5-dihydro-1H-1,2,4-triazol-1-yl)-6-fluoro-1-propyl-2,3-dihydroquinazolin-4(1H)-one]
7.20	–	< 7.00	C=C(C)C1CN(c2c(Cl)ccnc2C)C(=O)c2cc(F)c(-n3nc(CO)n(CC)c3=O)cc21 (racemic) [Example 25, Racemic-2-(4-Chloro-2-methylpyridin-3-yl)-6-(4-ethyl-3-(hydroxymethyl)-5-oxo-4,5-dihydro-1H-1,2,4-triazol-1-yl)-7-fluoro-4-(prop-1-en-2-yl)-3,4-dihydroisoquinolin-1(2H)-one]
8.77	–	7.96	CCn1c(CO)nn(-c2nc3c(cc2F)C(=O)N(c2c(F)cccc2Cl)CN3C2CC2)c1=O [Example 9, 3-(2-Chloro-6-fluorophenyl)-1-cyclopropyl-7-(4-ethyl-3-(hydroxymethyl)-5-oxo-4,5-dihydro-1H-1,2,4-triazol-1-yl)-6-fluoro-2,3-dihydropyrido[2,3-d]pyrimidin-4(1H)-one]
9.02	–	9.15	CC[C@H](C)N1CN(c2c(F)cccc2Cl)C(=O)c2cc(F)c(-n3nc(CO)n(CC)c3=O)nc21 [Example 31, (S)-1-(sec-Butyl)-3-(2-chloro-6-fluorophenyl)-7-(4-ethyl-3-(hydroxymethyl)-5-oxo-4,5-dihydro-1H-1,2,4-triazol-1-yl)-6-fluoro-2,3-dihydropyrido[2,3-d]pyrimidin-4(1H)-one]
8.18	–	8.52	CCn1c(CO)nn(-c2nc3c(cc2F)C(=O)N(c2c(F)cccc2Cl)CN3[C@@H](C)C2OCCCO2)c1=O [Example 23, (S)-1-(1-(1,3-Dioxan-2-yl)ethyl)-3-(2-chloro-6-fluorophenyl)-7-(4-ethyl-3-(hydroxymethyl)-5-oxo-4,5-dihydro-1H-1,2,4-triazol-1-yl)-6-fluoro-2,3-dihydropyrido[2,3-d]pyrimidin-4(1H)-one]
–	6.44	< 7.00	C=C(C)[C@H]1CN(c2c(C)cnc(OC)c2Cl)C(=O)c2cc(F)c(-n3nc(CO)n(CC)c3=O)cc21 (single isomer, unassigned; atropisomer 1) [Example 63, Atropisomer 1, (R *)-2-(3-Chloro-2-methoxy-5-methylpyridin-4-yl)-6-(4-ethyl-3-(hydroxymethyl)-5-oxo-4,5-dihydro-1H-1,2,4-triazol-1-yl)-7-fluoro-4-(prop-1-en-2-yl)-3,4-dihydroisoquinolin-1(2H)-one]
–	7.53	< 7.00	C=C(C)[C@H]1CN(c2c(C)cnc(OC)c2C)C(=O)c2cc(F)c(-n3nc(CO)n(CC)c3=O)cc21 (single isomer, unassigned; atropisomer 2) [Example 57, Atropisomer 2, (R*)-6-(4-Ethyl-3-(hydroxymethyl)-5-oxo-4,5-dihydro-1H-1,2,4-triazol-1-yl)-7-fluoro-2-(2-methoxy-3,5-dimethylpyridin-4-yl)-4-(prop-1-en-2-yl)-3,4-dihydroisoquinolin-1(2H)-one]
7.44	–	7.70	CCn1c(CO)nn(-c2cc3c(cc2F)C(=O)N(c2c(C)ccnc2Cl)CN3C(C)C)c1=O [Example 28, 3-(2-Chloro-4-methylpyridin-3-yl)-7-(4-ethyl-3-(hydroxymethyl)-5-oxo-4,5-dihydro-1H-1,2,4-triazol-1-yl)-6-fluoro-1-isopropyl-2,3-dihydroquinazolin-4(1H)-one]
6.99	–	–	CCn1c(CO)nn(-c2ccc3c(c2)C(C(C)C(F)(F)F)CN(c2ccccc2F)C3=O)c1=O (centres unmarked) [Example 74, 6-(4-Ethyl-3-(hydroxymethyl)-5-oxo-4,5-dihydro-1H-1,2,4-triazol-1-yl)-2-(2-fluorophenyl)-4-(1,1,1-trifluoropropan-2-yl)-3,4-dihydroisoquinolin-1(2H)-one]
–	6.53	–	C=C(C)C1CN(c2c(C)ccnc2Cl)C(=O)c2cc(F)c(-n3nc(CO)n(CC)c3=O)cc21 (single isomer, unassigned) [Example 47, (R *)-2-(2-Chloro-4-methylpyridin-3-yl)-6-(4-ethyl-3-(hydroxymethyl)-5-oxo-4,5-dihydro-1H-1,2,4-triazol-1-yl)-7-fluoro-4-(prop-1-en-2-yl)-3,4-dihydroisoquinolin-1 (2H)-one]
–	8.26	–	C=C(C)C1CN(c2c(C)ccnc2Cl)C(=O)c2cc(F)c(-n3nc(CO)n(CC)c3=O)cc21 (single isomer, unassigned) [Example 46, (S*)-2-(2-Chloro-4-methylpyridin-3-yl)-6-(4-ethyl-3-(hydroxymethyl)-5-oxo-4,5-dihydro-1H-1,2,4-triazol-1-yl)-7-fluoro-4-(prop-1-en-2-yl)-3,4-dihydroisoquinolin-1(2H)-one]

Compound	pIC50 (MOLM-13 cells; Homo sapiens, MOLM-13, 72 h)	pIC50 (MOLM-13 cells)	pIC50 (human DHODH)
CCn1c(CO)nn(-c2cc3c(cc2F)C(=O)N(c2c(F)cccc2Cl)CN3C(C)C)c1=O [Example 1, 3-(2-Chloro-6-fluorophenyl)-7-(4-ethyl-3-(hydroxymethyl)-5-oxo-4,5-dihydro-1H-1,2,4-triazol-1-yl)-6-fluoro-1-isopropyl-2,3-dihydroquinazolin-4(1H)-one]	9.07	–	–

Source: US20220081422A1 (Janssen Biotech, Inc., priority 2019, published 2022)
